Consider 1 substance from patent US7569541B2 (priority 2003, dated 2009).

The test has as its system P. falciparum. The following applies: in vivo.

Consider “Asn-Pro-Asn-Ala-Asn-(Apro-Asn-Ala-Asn-Pro-Asn-Ala-Asn-Pro-Asn-Glu)cyclo-Asn-Pro-Asn-Ala attached to a PE moiety [UK39]”, for which the Antigenicity result is “excellent”.
